Measured values: PMC6696315, “Inhibiting Acetylcholinesterase to Activate Pleiotropic Prodrugs with Therapeutic Interest in Alzheimer’s Disease” (Molecules, 2019)
Several values for one entry are separate records, joined by “and”; a condition that tells them apart may be missing. Equal entries are not always repeated. Entries after “also recorded” stand apart in the source; their conditions may differ. Structures can show the parent of a compound that is named as a salt.

How the values were obtained:
[1] = biological target: T1, human 5-HT4R (Homo sapiens, UniProt Q13639); test: 5-HT4R radioligand displacement assay ([3H]-GR113808); assay type: binding; conditions: for 5-HT4R affinity: result in words
T1 construct: purchased Eurofins HTS110M
Procedure: All the synthesized phenolic derivatives and their carbamates were evaluated as potential inhibitors of human AChE, using the Ellman assay, as well as potential ligands for human 5-HT4R using a radioligand displacement assay. […].
For competition studies, 2.5 µg of proteins (5-HT4(b) membrane preparations, HTS110M, Eurofins. Eurofins’ 5-HT4(b) membrane preparations are crude membrane preparations made from their proprietary stable recombinant cell lines to ensure high-level of GPCR surface expression.) were incubated in duplicate at 25 °C for 60 min in the absence or the presence of 10^−6 or 10^−8M of each drug (9 was used as a reference standard) and 0.2 nM [^3H]-GR113808 (NET 1152, Perkin Elmer) in 25 mM Tris buffer (pH 7.4, 25 °C). At the end of the incubation, homogenates were filtered through Whatman GF/C filters (Alpha Biotech) pre-soaked with 0.5% polyethylenimine using a Brandel cell harvester. Filters were subsequently washed three times with 1 mL of ice-cold 25 mM Tris buffer (pH 7.4, 4 °C). Non-specific binding was evaluated in parallel in the presence of 30 µM serotonin. For some of these compounds, affinity constants were calculated from five-point inhibition curves using the GraphPad Prism 6 software and expressed as Ki ± SD.

[2] = biological target: T2, AChE (Homo sapiens, UniProt P22303); test: AChE inhibition, Ellman assay; assay type: biochemical; parameters: AChE from human erythrocytes; purchased Sigma Aldrich; host or cells: human erythrocytes (natural source); conditions: for inhibition at 1 µM: read-out: (h)AChE % Inhibition at 10^−6 M; for AChE inhibitory activity: result in words
Procedure: All the synthesized phenolic derivatives and their carbamates were evaluated as potential inhibitors of human AChE, using the Ellman assay, as well as potential ligands for human 5-HT4R using a radioligand displacement assay.
The inhibitory capacity of compounds on AChE biological activity was evaluated through the use of the spectrometric method of Ellman. Acetylthiocholine iodide and 5,5-dithiobis-(2-nitrobenzoic) acid (DTNB) were purchased from Sigma Aldrich. AChE from human erythrocytes (buffered aqueous solution, ≥500 units/mg protein (BCA), Sigma Aldrich, St. Louis, MO, USA) was diluted in 20 mM HEPES buffer pH 8, 0.1% Triton X-100 such as to have enzyme solution with 0.25 unit/mL enzyme activity. In the procedure, 100 μL of 0.3 mM DTNB dissolved in a phosphate buffer with pH 7.4 were added into the 96-well plates followed by 50 μL of the test compound solution and 50 μL of enzyme (0.05 U final). After 5 min of preincubation at 25 °C, the reaction was then initiated by the injection of 50 μL of 10 mM acetylthiocholine iodide solution. […] Assays were performed with a blank containing all components except acetylthiocholine, in order to account for non-enzymatic reactions. The reaction slopes were compared and the percent inhibition due to the presence of test compounds was calculated by the following expression: 100 − (vi/v0 × 100), where vi is the rate calculated in the presence of inhibitor and v0 is the enzyme activity.

[3] = biological target: T1, human 5-HT4R; test: 5-HT4R radioligand displacement assay ([3H]-GR113808); assay type: binding; conditions: mean ± SEM of at least three experiments
[4] = biological target: T3, (h)5-HT4(a) receptors (Homo sapiens, UniProt Q13639); test: cAMP production in COS-7 cells transfected with 5-HT4R; assay type: cell-based
T3 construct: HA; expressed in transfected cells; host or cells: COS-7
Procedure: COS-7 cells were grown in Dulbecco’s modified Eagle medium (DMEM) supplemented with 10% dialyzed fetal calf serum (dFCS) and antibiotics. Cells were transiently transfected by electroporation with plasmids encoding HA-tagged 5-HT4R (100 ng/10^6 cells), then seeded in 96-well plates (16,000 cells/well). […] After 10 min, cells were then lysed by the addition of the same volume of Triton-X100 (0.1%). Quantification of cAMP production was performed by HTRF® using the cAMP Dynamic kit (Cisbio Bioassays, Codolet, France) according to the manufacturer’s instructions.

[5] = biological target: T2, AChE; test: Kinetic study for AChE inhibition (Lineweaver-Burk plots); assay type: biochemical
Procedure: To try to clarify the mechanism of action of 19 and 20, reciprocal plots of 1/velocity vs. 1/[substrate] were constructed at different concentrations of the substrate acetylthiocholine iodide (0.01–1 mM) by using the spectrometric method by Ellman et al.. Four concentrations of 19 were selected for the studies: 10^−6, 10^−7, 10^−8 and 10^−9 M for the kinetic analysis of AChE inhibition. Four concentrations of 20 were selected for the studies: 10^−5, 10^−6, 10^−7 and 10^−8 M for the kinetic analysis of AChE inhibition. The plots were assessed by a weighted least squares analysis that assumed the variance of velocity (ν) to be a constant percentage of ν for the entire dataset. Slopes of these reciprocal plots were then plotted against the concentration of 19 and 20 in a weighted analysis.

[6] = test system: rodents; conditions: various tests; cited from earlier work
[7] = test system: rodents; conditions: cited from earlier work
[8] = test system: mice; test: CNS-activity and acute toxicity test; conditions: mice, IP
Procedure: Animals. Adult male NMRI mice (3 months old, weighing 35–40 g) from Janvier labs (Le Genest-Saint-Isle, France) were used to perform experiments. Mice were housed by ten in standard polycarbonate cages in standard controlled conditions (22 ± 2 °C, 55 ± 10% humidity) with a reversed 12 h light/dark cycle (light on at 7 pm). Food and water were available ad libitum in the home cage. All experiments were conducted (between 9 am and 3 pm) during the active–dark phase of the cycle and were in agreement with the European Directives and French law on animal experimentation (personal authorization n° 14–17 for MB and 14–60 for TF).
CNS-activity and acute toxicity test. Behavioral and neurological changes induced by graded doses (1, 10, 100 mg/kg) of the tested derivatives were evaluated in mice, in groups of four, by a standardized observation technique at different times (30 min, 3 and 24 h) after intraperitoneal administration. […] The approximate DL50 of the compounds were also calculated through the quantification of mortality after 24 h. Amphetamine (2 mg/kg) and chlorpromazine (10 mg/kg) were used as the stimulant and depressive references, respectively.

[9] = (h)AChE IC50, Ellman assay, mean ± SEM of at least two experiments

T2 sequence (P22303 32-617 isoform P22303-2 limits assumed): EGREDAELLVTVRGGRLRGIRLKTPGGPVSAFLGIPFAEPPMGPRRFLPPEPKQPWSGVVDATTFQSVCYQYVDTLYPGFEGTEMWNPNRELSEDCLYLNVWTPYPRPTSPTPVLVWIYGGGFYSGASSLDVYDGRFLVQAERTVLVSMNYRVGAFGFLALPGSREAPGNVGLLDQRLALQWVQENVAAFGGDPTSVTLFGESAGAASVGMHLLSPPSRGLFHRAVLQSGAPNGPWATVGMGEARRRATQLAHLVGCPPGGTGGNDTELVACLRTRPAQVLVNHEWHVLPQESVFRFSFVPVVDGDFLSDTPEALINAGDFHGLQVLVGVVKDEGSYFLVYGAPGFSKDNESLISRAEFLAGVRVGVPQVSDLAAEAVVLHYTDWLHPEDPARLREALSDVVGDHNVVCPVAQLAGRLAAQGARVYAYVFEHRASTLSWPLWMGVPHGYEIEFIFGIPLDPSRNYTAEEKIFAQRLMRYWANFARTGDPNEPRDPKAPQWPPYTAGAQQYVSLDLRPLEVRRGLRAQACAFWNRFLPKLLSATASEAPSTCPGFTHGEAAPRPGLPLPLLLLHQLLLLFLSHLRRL
T3 sequence (Q13639 1-387 isoform Q13639-2): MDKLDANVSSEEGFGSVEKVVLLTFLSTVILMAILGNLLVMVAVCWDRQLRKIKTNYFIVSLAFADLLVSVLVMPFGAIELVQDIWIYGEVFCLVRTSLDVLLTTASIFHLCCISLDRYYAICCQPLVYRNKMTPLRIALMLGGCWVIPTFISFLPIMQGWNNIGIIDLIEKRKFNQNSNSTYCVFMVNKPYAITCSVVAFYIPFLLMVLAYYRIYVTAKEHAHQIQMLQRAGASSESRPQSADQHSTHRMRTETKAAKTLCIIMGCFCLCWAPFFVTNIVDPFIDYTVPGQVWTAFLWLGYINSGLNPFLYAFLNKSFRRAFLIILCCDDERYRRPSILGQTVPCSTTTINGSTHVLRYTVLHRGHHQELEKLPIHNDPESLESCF
T1 sequence (Q13639 whole entry): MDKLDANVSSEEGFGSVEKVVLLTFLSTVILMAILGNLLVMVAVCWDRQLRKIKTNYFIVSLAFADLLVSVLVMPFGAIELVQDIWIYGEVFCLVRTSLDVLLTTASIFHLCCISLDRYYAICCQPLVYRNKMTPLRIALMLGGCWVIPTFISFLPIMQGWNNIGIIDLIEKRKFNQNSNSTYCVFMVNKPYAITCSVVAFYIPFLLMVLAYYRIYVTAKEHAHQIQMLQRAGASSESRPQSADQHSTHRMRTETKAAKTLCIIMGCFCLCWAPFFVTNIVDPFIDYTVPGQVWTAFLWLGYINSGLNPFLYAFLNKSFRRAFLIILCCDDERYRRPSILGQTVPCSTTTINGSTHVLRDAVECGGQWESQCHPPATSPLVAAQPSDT

For `CCN(C)C(=O)Oc1cccc(CN2CCC(COC(=O)c3cc(Cl)c(N)cc3OC)CC2)c1` [Compound 8, [1-[[3-[Ethyl(methyl)carbamoyl]oxyphenyl]methyl]-4-piperidyl]methyl 4-amino-5-chloro-2-methoxybenzoate], the inhibition at 0.01 µM ([1]; 10^−8 M) was 23%, the 5-HT4R affinity [1] was “devoid of any activity towards 5-HT4R” and the IC50 [2, 9] was 16300 nM.

For `COc1cc(N)c(Cl)cc1C(=O)NCC1CCN(Cc2cccc(O)c2)CC1` [Compound 6, 4-Amino-5-chloro-N-[[1-[(3-hydroxyphenyl)methyl]-4-piperidyl]methyl]-2-methoxybenzamide], the Ki [3] was 5.8 ± 1.2 nM, the inhibition at 1 µM [2] was 4% and the AChE inhibitory activity [2] was “devoid of any AChE inhibitory activities; also recorded: absent”.

In the case of `CCN(C)C(=O)Oc1cccc(CN2CCC(CCC(=O)c3cc(Cl)c(N)cc3OC)CC2)c1` [Compound 7, [3-[[4-[3-(4-Amino-5-chloro-2-methoxyphenyl)-3-oxopropyl]-1-piperidyl]methyl]phenyl] N-ethyl-N-methyl-carbamate], the “(h)5-HT4R % Inhibition at 10^−8 M” value ([1]; 10^−8 M) is reported as 3%, the 5-HT4R affinity [1] is reported as “devoid of any activity towards 5-HT4R” and the IC50 [2, 9] is reported as 4150 ± 794 nM. It also gave an IC50 ([2]; AChE IC50, value in text) of 4150 nM.

For `COc1cc(N)c(Cl)cc1C(=O)CCC1CCN(Cc2cccc(O)c2)CC1.O=C(O)/C=C/C(=O)O` [Compound 19, 1-(4-Amino-5-chloro-2-methoxyphenyl)-3-[1-[(3-hydroxyphenyl)methyl]-4-piperidyl]propan-1-one fumaric acid salt], the “% Control Agonist Response” value ([4]; 5-HT as control 5-HT4R agonist, mean ± SEM) was 59.0 ± 3.9%, the Profile ([4]; (h)5-HT4(a) pharmacological profile) was “partial 5-HT4R agonist” and the EC50 ([4]; given as Log(EC50), negative values, mean ± SEM) was 0.126 nM. The “mechanism of AChE inhibition” value [5] was “non-competitive AChE inhibitor; also recorded: non-competitive-type”, the Ki [3] was 6.9 ± 1.2 nM and the IC50 [2, 9] was 72 ± 1.4 nM.

In the case of `CCN(C)C(=O)Oc1cccc([C@H](C)N(C)C)c1` [Rivastigmine], the “effect on scopolamine-induced memory performance deficit” value [6] is given as “counterbalance scopolamine-induced memory performance deficit” and the “effect on memory deficits induced by MK 801” value [7] is given as “ineffective in improving memory deficits induced by MK 801”.

For `COc1cc(N)c(Cl)cc1C(=O)CCC1CCN(Cc2cccc(O)c2)CC1` [Compound 4, 1-(4-Amino-5-chloro-2-methoxyphenyl)-3-[1-[(3-hydroxyphenyl)methyl]-4-piperidyl]propan-1-one], the Ki [3] was 5.1 ± 1.1 nM and the IC50 [2, 9] was 148 nM and 149 nM.

With `COc1cc(N)c(Cl)cc1C(=O)OCC1CCN(Cc2cccc(O)c2)CC1` [Compound 5, [1-[(3-Hydroxyphenyl)methyl]-4-piperidyl]methyl 4-amino-5-chloro-2-methoxybenzoate] the Ki [3] was 0.6 ± 0.4 nM, the inhibition at 1 µM [2] was 11% and the AChE inhibitory activity [2] was “devoid of any AChE inhibitory activities; also recorded: absent”.

For `C[C@H](N)Cc1ccccc1` [Amphetamine, (+)-α-Methylphenethylamine hemisulfate, reference compound], the “Symptoms (Subtoxic Doses)” value ([8]; 2 mg/kg, stimulant reference) was “Hyperactivity, exophtalmy, irritability”.

For `CCN(C)C(=O)Oc1cccc(CN2CCC(CNC(=O)c3cc(Cl)c(N)cc3OC)CC2)c1` [Compound 9, [3-[[4-[[(4-Amino-5-chloro-2-methoxybenzoyl)amino]methyl]-1-piperidyl]methyl]phenyl] N-ethyl-N-methyl-carbamate], the inhibition at 0.01 µM ([1]; 10^−8 M) was 13%, the 5-HT4R affinity [1] was “devoid of any activity towards 5-HT4R” and the IC50 [2, 9] was 10100 nM.

For `CN(C)CCCN1c2ccccc2Sc2ccc(Cl)cc21` [Chlorpromazine, chlorpromazine hydrochloride, reference compound], the “Symptoms (Subtoxic Doses)” value ([8]; 10 mg/kg, depressive reference) was “Hypoactivity, ataxia, sleep”.
